Results taken from patent US5298411A, “Glucose dehydrogenase from pseudomonas” (Toyo Boseki Kabushiki Kaisha, priority 1990, dated 1994).
Where two headings read alike, the source gives them in different places.

Key:
Assay type in all cases: biochemical, Pseudomonas sp. FH1227
[1] = test system: glucose dehydrogenase (EC1.1.1.47); experiment: Substrate specificity of the glucose dehydrogenase (enzyme activity determination); conditions: for Relative activity (%): Substrate (100 mM), β-D-glucose = 100.0
Description: (2) Substrate specificity
(§1) (11) Enzyme activity determination
(A) 0.1M Tris-HCl buffer, pH 8.0
(§2) Calculation equation: [formula]
1.0=optical path length (cm)

[2] = test system: glucose dehydrogenase (EC1.1.1.47); experiment: Km value determination
[3] = test system: glucose dehydrogenase (EC1.1.1.47)
Experimental: as §1
The enzyme activity was determined by taking the enzyme activity producing 1 micromole of NADH per 1 minute under the conditions mentioned below as 1 unit.
1. The following reaction mixture is prepared in a cuvette (d=1 cm) and preheated at 37° C. for about 5 minutes.
2. An enzyme solution (0.05 ml) is added thereto, and the mixture is gently stirred. The change of absorbance at 340 nm is recorded for 5 minutes using a spectrophotometer controlled at 37° C. with water as the control. The change of absorbance per 1 minute is estimated on the basis of the linear portion from minute 2 to minute 5. (ΔOD test)
3. The blank test is conducted by following the same procedure as above except that 0.05 ml of […] (with phosphate buffer, pH 7.0) is used in place of the enzyme solution, to estimate the change in absorbance per 1 minute. (ΔOD blank)
as §2

[4] = read-out: Km value to the coenzyme
[5] = inhibitor concentration 2.0 × 10^-3 M, non added = 100.0

Compound | Relative activity (%) [1] [%] | further results
2-deoxy-glucose | 119.7 | Substrate specificity [1]: specifically acts on
O=C(CO)[C@@H](O)[C@H](O)[C@H](O)CO [D-fructose] | 0.8 | –
OC[C@H]1OC(O)[C@H](O)[C@@H](O)[C@H]1O (stereo partly drawn) [D-galactose] | 0.1 | –
OC[C@H]1O[C@@H](O[C@H]2[C@H](O)[C@@H](O)C(O)O[C@@H]2CO)[C@H](O)[C@@H](O)[C@H]1O (stereo partly drawn) [D-lactose] | 1.2 | –
OC[C@@H](O)[C@@H](O)[C@H](O)[C@H](O)CO [D-mannitol] | 0.0 | –
OC[C@H]1OC(O)[C@@H](O)[C@@H](O)[C@@H]1O (stereo partly drawn) [D-mannose] | 2.4 | –
OC[C@@H](O)[C@@H](O)[C@H](O)[C@@H](O)CO [D-sorbitol] | 0.1 | –
OC[C@@H]1OC(O)[C@@H](O)[C@H](O)[C@H]1O (stereo partly drawn) [L-glucose] | 0.0 | –
O=C(CO)[C@@H](O)[C@H](O)[C@@H](O)CO [L-sorbose] | 0.3 | –
NC(=O)c1ccc[n+]([C@@H]2O[C@H](COP(=O)([O-])OP(=O)(O)OC[C@H]3O[C@@H](n4cnc5c(N)ncnc54)[C@H](OP(=O)(O)O)[C@@H]3O)[C@@H](O)[C@H]2O)c1 [NADP] | – | Km [2, 4]: 0.0407 mM
NC(=O)c1ccc[n+]([C@@H]2O[C@H](COP(=O)([O-])OP(=O)(O)OC[C@H]3O[C@@H](n4cnc5c(N)ncnc54)[C@H](O)[C@@H]3O)[C@@H](O)[C@H]2O)c1 [NAD] | – | Km [2, 4]: 0.308 mM
O[C@H]1[C@H](O)[C@@H](O)[C@H](O)[C@@H](O)[C@H]1O [inositol] | 0.2 | –
OC[C@H]1O[C@H](O[C@H]2[C@H](O)[C@@H](O)[C@H](O)O[C@@H]2CO)[C@H](O)[C@@H](O)[C@@H]1O [maltose] | 3.9 | –
[Cl][Hg][Cl] [mercury chloride] | – | Inhibition of the enzyme [3]: inhibited; Relative activity (%) [3, 5]: 5.9%
O=C(O)CI [monoiodoacetate] | – | Inhibition of the enzyme [3]: inhibited; Relative activity (%) [3]: 0.4%
OC[C@H]1O[C@@](CO)(O[C@H]2O[C@H](CO)[C@@H](O)[C@H](O)[C@H]2O)[C@@H](O)[C@@H]1O [saccharose] | 0.0 | –
O=[N+]([O-])[O-].[Ag+] [silver nitrate] | – | Inhibition of the enzyme [3]: inhibited; Relative activity (%) [3, 5]: 7.1%
OC[C@H]1O[C@@H](O)[C@H](O)[C@@H](O)[C@@H]1O [β-D-glucose] | 100.0 | Substrate specificity [1]: specifically acts on; Km ([2]; coenzyme NAD, read-out: Km value to β-D-glucose): 13.8 mM; Km ([2]; coenzyme NADP, read-out: Km value to β-D-glucose): 12.5 mM
xylose | 8.9 | –
